Assay results from patent US20250034212A1, “PEPTIDE” (PEPTIDREAM INC., priority 2021, published 2025).
Starred links: 1 amine or outer side, 2 acyl side, 3 side chain; linkers in the order of their positions; H or OH if unused. Positions of bridges follow the written chain, without caps; N, C: chain ends. Non-standard residues stand in square brackets, D forms with d. Residues, ends and D or L forms follow the SMILES beside them. Groups on a side chain read outwards from the residue. *: point of attachment. Piperazinyl(4-CH2COOH) = O=C(O)CN1CCN(*)CC1; 1Nal = N[C@@H](Cc1cccc2ccccc12)C(=O)O; Gly(NCH2CH2Ph) = O=C(O)CNCCc1ccccc1; 4Pal = N[C@@H](Cc1ccncc1)C(=O)O; CO = O=C([*:1])[*:2]

What was measured:
recombinant human TGF-β1 [1] = target: T1, recombinant human TGF-β1 (Homo sapiens, UniProt P01137); assay: SPR intermolecular interaction test, TGF-β1 immobilized on CM3 sensor chip (Biacore T200); format: binding; details: for Kd: Single Cycle Kinetics, human TGF-β1
T1 construct: purchased R&D systems
Protocol: In this Example, (1) the activity of binding to TGF-β for various peptides consisting of the amino acid sequences set forth in SEQ ID NOs: 2-33 synthesized in Examples 1 to 5 and 7 was evaluated. (2) The activity and selectivity of binding of the peptide consisting of the amino acid sequence set forth in SEQ ID NO: 13 synthesized in Example 2 against two isoforms of TGF-β (TGF-β1 and β2) were checked. For this purpose, the intermolecular interaction of each peptide against TGF-β was tested by surface plasmon resonance (SPR) in the method described below. Specific test methods are described below.
A CM3 sensor chip (Global Life Science Technologies Japan Co., Ltd.) was inserted into a BiacoreT200 (Global Life Science Technologies Japan Co., Ltd.). Three priming runs were performed using running buffer: HBS-EP+ (Global Life Science Technologies Japan Co., Ltd.). The system was then equilibrated at a flow rate of 30 μL/min.
Subsequently, 50 μL of 60 mM EDC solution (Global Life Science Technologies Japan Co., Ltd.) and 50 μL of 650 mM NHS solution (Global Life Science Technologies Japan Co., Ltd.) were mixed. Next, the reaction was carried out at a flow rate of 10 μL/min for 420 seconds. Then, 150 μL of 0.2 μM TGF-β solution diluted in 10 mM acetic acid solution (pH 5.0) was prepared and reacted at a flow rate of 10 μL/min for 420 seconds to immobilize TGF-β on the CM3 sensor chip. TGF-β was human-derived TGF-β1 or β2 (recombinant human TGF-β1, 2) and was obtained from R&D systems. After immobilization, capping was performed by reacting with 1.0 M ethanolamine aqueous solution (Global Life Science Technologies Japan Co., Ltd.) at a flow rate of […] for 420 seconds.
A liquid prepared by dissolving each peptide at 10 mM in DMSO solution was diluted with running buffer to prepare a peptide-dissolved solution at a final concentration of 10 μM. Subsequently, 50 nM, 25 nM, 12.5 nM, 5 nM, and 2.5 nM peptide solutions were prepared. Using the above samples, the kinetics of each peptide against TGF-β was obtained by SPR measurement.
The kinetics evaluation model was Single Cycle Kinetics, and curve fitting was performed using Biacore T200 Evaluation Software Version 3.0 (Global Life Science Technologies Japan Co., Ltd.). The binding of various peptides to TGF-β was evaluated by performing least-squares curve fitting on the obtained sensorgram to calculate the KD value.

recombinant human TGF-β1 [2] = target: T1, recombinant human TGF-β1; assay: SBE reporter assay in SBE reporter-HEK293 cells, TGF-β1 stimulation; format: cell-based; details: for inhibition at 75 pM: peptide 0.075 nM; for inhibition at 0.00075 µM: peptide 0.75 nM; for inhibition at 0.0075 µM: peptide 7.5 nM; for inhibition at 0.075 µM: peptide 75.0 nM
Excerpt: The inhibitory activity of the peptide can be calculated without limitation while the maximum signal induced by TGF-β is set to 0% inhibition and no stimulation is set to 100% inhibition. When the peptide is used at an appropriate concentration, for example, at the optimal concentration, the inhibitory activity is not limited but the inhibition is 5% or more, 10% or more, 20% or more, 30% or more, 40% or more, 50% or more, 60% or more, 70% or more, 80% or more, or 90% or more.
In this Example, the TGF-β1 inhibitory activity of the peptide of the present invention consisting of the amino acid sequence set forth in SEQ ID NOs: 2-33 synthesized in Examples 1 to 5 and 7 was evaluated by an SBE reporter assay using the SBE reporter-HEK293 cell system (BP Bioscience) as follows.
SBE reporter-HEK293 cells were cultured in E-MEM (Wako) containing 10% FBS (Sigma). The cells were detached using Accutase (Innovative Cell Technologies), suspended in E-MEM containing 0.5% FBS, seeded onto a 96-well plate(s) at a concentration of 45,000 cells per well, and cultured overnight. The next day, the peptide was added and allowed to stand for 20 min, and recombinant human TGF-β1 (R&D systems) or recombinant human TGF-β2 (R&D systems) was then added at 0.13 nM and cultured for 18 hours.
Thereafter, luciferase assay ONE-Glo reagent was added to each well and the plate was shaken for 5 min. A SpectraMax Paradigm multimode microplate reader (Molecular Devices) was then used for signal detection. The obtained signals were analyzed by GraphPad Prism. The inhibitory activity of the peptide was calculated while the maximum signal induced by TGF-β was set to 0% inhibition and no stimulation was set to 100% inhibition.

T1 sequence (P01137 279-390 limits assumed): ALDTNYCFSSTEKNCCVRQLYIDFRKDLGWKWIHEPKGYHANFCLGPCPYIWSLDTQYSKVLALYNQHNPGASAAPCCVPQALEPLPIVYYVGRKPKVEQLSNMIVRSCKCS

ability of binding to TGF-β1 (in words) (recombinant human TGF-β1 [1]) | TGF-β1 antagonist / inhibitory activity (in words) (recombinant human TGF-β1 [2]; SBE reporter assay, FIG. 1 and Tables 2 and 3) | inhibition at 75 pM (recombinant human TGF-β1 [2]; TGF-β1 0.13 nM, 18 hours) | inhibition at 0.00075 µM (recombinant human TGF-β1 [2]; TGF-β1 0.13 nM, 18 hours) | inhibition at 0.0075 µM (recombinant human TGF-β1 [2]; TGF-β1 0.13 nM, 18 hours) | inhibition at 0.075 µM (recombinant human TGF-β1 [2]; TGF-β1 0.13 nM, 18 hours) | Kd (recombinant human TGF-β1 [1]) | inhibition at 62 pM (recombinant human TGF-β1 [2]; peptide 0.062 nM, TGF-β1 0.13 nM, 18 hours) | inhibition at 0.000185 µM (recombinant human TGF-β1 [2]; peptide 0.185 nM, TGF-β1 0.13 nM, 18 hours) | inhibition at 0.00056 µM (recombinant human TGF-β1 [2]; peptide 0.56 nM, TGF-β1 0.13 nM, 18 hours) | inhibition at 0.0017 µM (recombinant human TGF-β1 [2]; peptide 1.7 nM, TGF-β1 0.13 nM, 18 hours) | inhibition at 0.005 µM (recombinant human TGF-β1 [2]; peptide 5.0 nM, TGF-β1 0.13 nM, 18 hours) | inhibition at 0.015 µM (recombinant human TGF-β1 [2]; peptide 15.0 nM, TGF-β1 0.13 nM, 18 hours) | SMILES
confirmed to have TGF-β binding activity | TGF-β antagonist activity | 19.7% | 69.7% | 98.1% | 101% | – | – | – | – | – | – | – | CC(C)[C@@H]1NC(=O)CN(CCc2ccccc2)C(=O)[C@H](CC(=O)O)NC(=O)[C@H](CC(=O)O)NC(=O)[C@H](Cc2ccc(O)cc2)NC(=O)[C@H](C(C)C)NC(=O)[C@H](CC(N)=O)NC(=O)[C@H](C(C)C)NC(=O)[C@H](C(C)C)NC(=O)[C@H](Cc2cccc3ccccc23)NC(=O)[C@H](Cc2ccccc2)NC(=O)CSC[C@@H](C(=O)NCC(N)=O)NC(=O)[C@H](C(C)C)NC(=O)[C@H](Cc2c[nH]cn2)NC(=O)[C@H](Cc2ccc(O)cc2)NC(=O)[C@H](Cc2cccc3ccccc23)NC1=O [TGFb1_001, F-Nal1-V-V-N-V-Y-D-D-PeG-V-Nal1-Y-H-V-C-G] ({CH2CO}-F[1Nal]VVNVYDD[Gly(NCH2CH2Ph)]V[1Nal]YHVCG-NH2; thioether N-16)
– | – | 2.8% | 69.3% | 97.1% | 99.7% | 1.03 nM | – | – | – | – | – | – | CC(C)[C@@H]1NC(=O)CN(CCc2ccccc2)C(=O)[C@H](CC(=O)O)NC(=O)[C@H](CC(=O)O)NC(=O)[C@H](Cc2ccncc2)NC(=O)[C@H](C(C)C)NC(=O)[C@H](CC(N)=O)NC(=O)[C@H](C(C)C)NC(=O)[C@H](C(C)C)NC(=O)[C@H](Cc2cccc3ccccc23)NC(=O)[C@H](Cc2ccccc2)NC(=O)CSC[C@@H](C(=O)NCC(N)=O)NC(=O)[C@H](C(C)C)NC(=O)[C@H](Cc2c[nH]cn2)NC(=O)[C@H](Cc2ccc(O)cc2)NC(=O)[C@H](Cc2cccc3ccccc23)NC1=O [TGFb1_006] ({CH2CO}-F[1Nal]VVNV[4Pal]DD[Gly(NCH2CH2Ph)]V[1Nal]YHVCG-NH2; thioether N-16)
– | – | – | – | – | – | 0.82 nM | – | – | – | – | – | – | CC(C)[C@@H]1NC(=O)CN(CCc2ccccc2)C(=O)[C@H](CC(=O)O)NC(=O)[C@H](CC(=O)O)NC(=O)[C@H](Cc2ccncc2)NC(=O)[C@H](C(C)C)NC(=O)[C@H](CC(N)=O)NC(=O)[C@H](C(C)C)NC(=O)[C@H](C(C)C)NC(=O)[C@H](Cc2cccc3ccccc23)NC(=O)[C@H](Cc2ccccc2)NC(=O)CSC[C@@H](C(N)=O)NC(=O)[C@H](CCCCNC(=O)N2CCN(CC(=O)O)CC2)NC(=O)[C@H](Cc2c[nH]cn2)NC(=O)[C@H](Cc2ccc(O)cc2)NC(=O)[C@H](Cc2cccc3ccccc23)NC1=O [TGFb1_013] ({CH2CO}-F[1Nal]VVNV[4Pal]DD[Gly(NCH2CH2Ph)]V[1Nal]YHK([CO-Piperazinyl(4-CH2COOH)])C-NH2; thioether N-16)
– | – | – | – | – | – | 1.41 nM | 5.21% | 11.3% | 30.2% | 61.6% | 87.8% | 96.4% | CC(C)[C@@H]1NC(=O)CN(CCc2ccccc2)C(=O)[C@H](CC(=O)O)NC(=O)[C@H](CC(=O)O)NC(=O)[C@H](Cc2ccncc2)NC(=O)[C@H](C(C)C)NC(=O)[C@H](CC(N)=O)NC(=O)[C@H](CCCCNC(=O)N2CCN(CC(=O)O)CC2)NC(=O)[C@H](C(C)C)NC(=O)[C@H](Cc2cccc3ccccc23)NC(=O)[C@H](Cc2ccccc2)NC(=O)CSC[C@@H](C(=O)NCC(N)=O)NC(=O)[C@H](CCCCNC(=O)N2CCN(CC(=O)O)CC2)NC(=O)[C@H](Cc2c[nH]cn2)NC(=O)[C@H](Cc2ccc(O)cc2)NC(=O)[C@H](Cc2cccc3ccccc23)NC1=O [TGFb1_019] ({CH2CO}-F[1Nal]VK([CO-Piperazinyl(4-CH2COOH)])NV[4Pal]DD[Gly(NCH2CH2Ph)]V[1Nal]YHK([CO-Piperazinyl(4-CH2COOH)])CG-NH2; thioether N-16)
